According to US10092028B2, “Compositions comprising cinnamaldehyde and zinc and methods of using such compositions” (NESTEC S.A., priority 2014, dated 2018):

What was measured:
[1] = nose temperature after ingestion in human subjects; format: in vivo; settings: fifteen minutes following ingestion, FIG. 7
Experimental: The nose temperature of the subjects was analyzed over the fifteen minutes following ingestion of the various compounds. […] The increased sympathetic activity identified by measuring the facial temperature (increased blood flow on the chin) might explain the increased energy expenditure measured by indirect calorimetry.

[2] = in vivo; cited from earlier work
[3] = comparative taste testing in human subjects; format: in vivo; settings: 4.8 ppm capsaicin or 350 ppm cinnamaldehyde, FIG. 9
Experimental: Human subjects were administered a composition comprising 4.8 ppm capsaicin or 350 ppm cinnamaldehyde. […] 87.9% of the participants judged capsaicin intense to very intense, compared to only 20.5% for cinnamaldehyde. To achieve a similar effect on fat oxidation of capsaicin and cinnamaldehyde, the dose of capsaicin is about 1.5 times less than the maximum that can be used as a flavor (7 ppm according to Fenaroli's Handbook; Burdock, 2010), and the dose of cinnamaldehyde is about 17.5 times less than the maximum that can be used as a flavor (6191.0 ppm according to Fenaroli's Handbook; Burdock, 2010).

[4] = energy expenditure after ingestion in human subjects; format: in vivo
Experimental: Human subjects were administered placebo, a cooling flavor, capsaicin, or cinnamaldehyde. The energy expenditure was measured over the eighty minutes following ingestion. […] The increased sympathetic activity identified by measuring the facial temperature (increased blood flow on the chin) might explain the increased energy expenditure measured by indirect calorimetry.

[5] = chin temperature after ingestion in human subjects (sympathetic activity); format: in vivo
Experimental: The chin temperature of the subjects was measured over the eighty minutes following ingestion of the various compounds. […] The increased sympathetic activity identified by measuring the facial temperature (increased blood flow on the chin) might explain the increased energy expenditure measured by indirect calorimetry.

[6] = target: T1, hTRPA1 expressed in CHO cells (Homo sapiens, UniProt O75762); test: in vitro activity of hTRPA1 expressed in CHO cells, intracellular calcium with a fluorescent dye; format: cell-based; settings: cinnamaldehyde at 50 mM (C+), according to a dose-response curve
T1 construct: expressed in transfected cells; host or cells: CHO cells
T1 sequence (O75762 whole entry): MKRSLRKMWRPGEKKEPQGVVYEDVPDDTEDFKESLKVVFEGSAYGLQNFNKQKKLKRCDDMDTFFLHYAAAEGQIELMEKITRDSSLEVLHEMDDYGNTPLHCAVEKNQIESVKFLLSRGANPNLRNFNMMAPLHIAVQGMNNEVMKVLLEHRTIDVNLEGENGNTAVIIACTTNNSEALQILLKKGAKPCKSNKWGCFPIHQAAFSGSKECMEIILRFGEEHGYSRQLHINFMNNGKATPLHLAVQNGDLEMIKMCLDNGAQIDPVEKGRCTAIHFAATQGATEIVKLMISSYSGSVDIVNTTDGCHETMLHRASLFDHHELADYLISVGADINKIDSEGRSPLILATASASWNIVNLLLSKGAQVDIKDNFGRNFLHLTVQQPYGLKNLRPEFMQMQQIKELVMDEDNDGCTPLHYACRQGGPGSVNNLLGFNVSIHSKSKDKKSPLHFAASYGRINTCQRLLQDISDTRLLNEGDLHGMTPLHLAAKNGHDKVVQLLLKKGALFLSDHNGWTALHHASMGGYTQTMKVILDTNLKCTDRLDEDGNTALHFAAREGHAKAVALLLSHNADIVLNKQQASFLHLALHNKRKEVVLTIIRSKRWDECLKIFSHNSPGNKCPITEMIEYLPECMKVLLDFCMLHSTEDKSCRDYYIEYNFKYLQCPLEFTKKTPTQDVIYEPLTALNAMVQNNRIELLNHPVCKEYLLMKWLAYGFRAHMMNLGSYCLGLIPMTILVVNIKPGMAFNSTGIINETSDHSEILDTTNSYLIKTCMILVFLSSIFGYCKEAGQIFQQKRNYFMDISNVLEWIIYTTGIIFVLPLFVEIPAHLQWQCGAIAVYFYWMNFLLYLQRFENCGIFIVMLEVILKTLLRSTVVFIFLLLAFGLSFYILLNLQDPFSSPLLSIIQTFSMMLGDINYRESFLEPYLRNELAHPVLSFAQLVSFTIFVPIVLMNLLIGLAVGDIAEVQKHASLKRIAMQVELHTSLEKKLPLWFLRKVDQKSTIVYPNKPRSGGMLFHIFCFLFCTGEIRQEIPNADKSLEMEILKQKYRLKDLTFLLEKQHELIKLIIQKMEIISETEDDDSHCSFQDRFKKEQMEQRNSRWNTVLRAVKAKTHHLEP

TRPA1 = TRPA1 (Homo sapiens, UniProt O75762); settings: read-out: EC50 for activation of TRPA1; cited from earlier work
TRPA1, sequence (O75762 whole entry): as above

TRPV1 = TRPV1 (Homo sapiens, UniProt Q8NER1); settings: cited from earlier work
TRPV1, sequence (Q8NER1 whole entry, species assumed): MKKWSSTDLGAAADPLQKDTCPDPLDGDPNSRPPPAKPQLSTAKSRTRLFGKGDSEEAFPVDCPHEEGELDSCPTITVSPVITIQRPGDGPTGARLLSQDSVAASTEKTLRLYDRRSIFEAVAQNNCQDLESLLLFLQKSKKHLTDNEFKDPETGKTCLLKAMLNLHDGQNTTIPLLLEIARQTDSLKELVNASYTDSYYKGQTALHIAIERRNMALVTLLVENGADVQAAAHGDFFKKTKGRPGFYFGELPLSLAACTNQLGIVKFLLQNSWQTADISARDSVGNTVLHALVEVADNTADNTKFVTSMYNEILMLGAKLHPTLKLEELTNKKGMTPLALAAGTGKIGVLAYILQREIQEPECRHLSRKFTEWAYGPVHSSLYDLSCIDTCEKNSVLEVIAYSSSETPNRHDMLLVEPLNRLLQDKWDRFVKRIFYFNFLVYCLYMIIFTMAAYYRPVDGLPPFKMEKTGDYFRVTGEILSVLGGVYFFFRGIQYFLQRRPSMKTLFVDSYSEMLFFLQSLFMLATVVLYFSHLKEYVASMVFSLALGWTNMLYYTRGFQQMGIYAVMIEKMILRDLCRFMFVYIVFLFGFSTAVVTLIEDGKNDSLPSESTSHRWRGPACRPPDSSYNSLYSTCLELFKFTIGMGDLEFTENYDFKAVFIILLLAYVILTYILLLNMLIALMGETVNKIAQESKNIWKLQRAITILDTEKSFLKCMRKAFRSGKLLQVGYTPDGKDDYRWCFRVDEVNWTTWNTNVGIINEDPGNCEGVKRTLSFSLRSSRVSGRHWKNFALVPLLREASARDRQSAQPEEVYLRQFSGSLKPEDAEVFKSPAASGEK

[7] = postprandial fat oxidation after ingestion in human subjects; format: in vivo
Experimental: The postprandial fat oxidation was measured over the 90 minutes following ingestion of the various compounds.

[8] = insulin sensitivity in mice with chronic ingestion, high fat diet; format: in vivo; settings: mice chronically fed high fat diet containing 0.2 wt % cinnamaldehyde, FIG. 11
From the text: The composition can thereby reduce glycemia.

[9] = at a flavoring level judged significantly less intense than capsaicin

Compound	nose temperature [1]	efficient dose for increasing energy expenditure and fat oxidation [2] [mg]	participants who judged the taste intense to very intense [3] [%]	impact on energy expenditure compared to capsaicin [4, 9]	energy expenditure compared to placebo ([4]; eighty minutes following ingestion, time course and AUC, FIGS. 3 and 4)	impact on sympathetic nervous system activity compared to capsaicin [5, 9]	chin temperature relative to baseline ([5]; eighty minutes following ingestion, FIG. 8)	activity of hTRPA1, positive control efficacy [6]	EC50 (TRPA1) [µM]	activation of TRPV1 (TRPV1)	postprandial fat oxidation compared to placebo ([7]; 90 minutes following ingestion, time course and AUC, FIGS. 5 and 6)	effect on fat oxidation compared to capsaicin [7, 9]	insulin sensitivity relative to same high fat diet without cinnamaldehyde [8]
COc1cc(CNC(=O)CCCC/C=C/C(C)C)ccc1O [capsaicin]	increase nose temperatures	≥ 20	87.9	–	–	–	–	–	–	–	–	–	–
O=CC=Cc1ccccc1 [cinnamaldehyde]	increase nose temperatures	–	–	significantly higher impact	increased	significantly higher impact	increases chin temperature for a prolonged time	maximum efficacy	~10	but not TRPV1 or TRPM8	maintained at higher levels	equivalent effect	improved insulin sensitivity
